The values below come from patent US10513559B2, “Amatoxin-armed therapeutic cell surface binding components designed for tumour therapy” (Deutsches Krebsforschungszentrum, priority 2009, dated 2019).

The test system of experiment [1] is MCF-7 cells. As to the kind of experiment: proliferation assay, [3H]-thymidine incorporation, MCF-7. The note with it: 72 or 96 h, amanitin concentration, read-out: IC50 of inhibition of cell proliferation. Format: cell-based, human. Here is the method: Inhibition of cell growth by amanitin-IgG conjugates was determined by incorporation of [^3H]-thymidine. Serial dilutions of amanitin-huHEA125 and amanitin in complete medium (RPMI 1640 supplemented with 10% heat-inactivated FCS, 2 mM L-glutamine and 1 mM sodium pyruvate) ranging from 2×10^−5 M to 6×10^−13 M were prepared in triplicates in a volume of 100 μl in the wells of a 96 well flat-bottom tissue culture microtiter plate. […] Plates were incubated in a humidified atmosphere at 37° C. and 5% CO2 for 72 or 96 h. At 20 h before the end of the assay, 1 μCi of [^3H]-thymidine was added. Subsequently, plates were processed with a Tomtec cell harvester and the incorporated radioactivity was determined by liquid scintillation counting (Wallac Betaplate Liquid Scintillation Counter, PerkinElmer Life and Analytical Sciences) and given as cpm.
Three examples of growth inhibition induced by different amanitin-IgG conjugates are depicted in FIGS. 5, 6, and 9. In all three experiments MCF-7 cells were used. […] In the experiment outlined in FIG. 6 huHEA125-Amanitin4 was compared with an alpha-phalloidin huHEA125 conjugate and with free Amanitin.

For experiment [2], the system named is MCF-7 breast cancer cells. As to the kind of experiment: binding of conjugates to MCF-7 cells by flow cytometry. The conditions noted are these: 1 μg/ml, 1 h on ice; FITC-labeled secondary antibody; identical antibody amounts. Set-up: species or system human. Here is the method: The abbreviation FL1-H stands for “fluorescence 1 height” which means the intensity of fluorescence 1, i.e. the green channel for FITC.
Binding of huHEA125-amanitin and huHEA125-phalloidin conjugates versus non-conjugated huHEA125 antibody was analyzed by flow cytometry. MCF-7 target cells were washed twice in FACS buffer (Dulbecco's PBS with 1% heat-inactivated fetal calf serum and 0.1% sodium azide) counted and adjusted to 2×10^7 cells per ml. Fifty μl of cell suspension was given to each well of a 96 well U-bottom microtiter plate. Immunotoxins huHEA125-amanitin1, huHEA125-amanitin4 and huHEA125-phalloidin as well as unconjugated huHEA125 antibody were added at a concentration of 1 μg/ml in a volume of 100 μl per well and incubated for 1 h on ice. The plate was centrifuged (2 min at 2000 rpm) and the supernatant was removed from the cells. Cells were re-suspended in 150 μl of FACS buffer and centrifuged again. Subsequently, 100 μl of FITC-labeled F(ab′)2 goat anti-human IgG (H+L) secondary antibody was added per well and incubated again for 1 h on ice. After two washing steps by centrifugation, cells were taken up in 100 μl/well of propidium iodide solution (1 μg/ml in FACS buffer) allowing discrimination of dead cells. Analysis was performed on a FACScan cytometer (Becton and Dickinson, Heidelberg, Germany) using CellQuest software.
In general terms: In flow cytometry, cells or beads pass a laser one at a time.

As for Amanitin [reference compound], the IC50 in experiment [1] is approximately 100 nM.

Turning to “huHEA125: chimeric anti-EpCAM antibody: mouse HEA125 variable domains, human kappa light and IgG1 heavy constant chains (SEQ ID NO: 1/2, 11)”, the “mean fluorescence intensity (MFI)” value in experiment [2] is given as 1094.

For the substance “α-Amanitin-glutarate-huHEA125 [huHEA125-Amanitin3]”, in experiment [1], the IC50 was approximately 0.002 nM.
